According to patent US12600715B2, “Soluble guanylate cyclate activators for treating systemic sclerosis” (Boehringer Ingelheim International GmbH, priority 2022, dated 2026):
“Also recorded” adds a separate entry of the source. Read-outs that look alike come from different tables or passages of the source.

Experiments:
[1] = tested on: platelet-rich plasma (PRP) from healthy donor volunteers; assay: Activation of PRP by ADP and CXCL4 detection by ELISA; type: cell-based, human; conditions: for ADP-induced CXCL4 production: PRP of 10 donors
Procedure: • Compound 114 (sample ID: 30295026, batch: 5) • EX0076637 (sample ID: 17810950, batch: 5) • Nintedanib esilate (Boehringer Ingelheim, Manufacture #67653, lot #1078235) • EX0000076 (sample ID: 15614118, batch: 1) • Blood from healthy donor volunteers • Plastic blood collection tubes with sodium citrate (BD biosciences, 363083) • 50 ml conical tube (Corning, 430828) • BSA solution, 30% in saline, fatty acid free, aseptically filled (Sigma, A9205) • ADP (Sigma, 01905-250MG-F) • Tyrode's buffer (Sigma, T2397) • HEPES (Gibco, 15630-080) • DMSO (Sigma, D2650) • 1 ml deep well plate (Thermo Scientific, 260251) • Sterile 0.22 um PVDF filter plate (Millipore, MAGVS2210) • 96 well microplate (Thermo Scientific, 249946) • CXCL4 ELISA kit (Abcam, ab189573 and R&D systems, DPF40)
Buffer preparation: HEPES-Tyrode BSA buffer: Tyrode's buffer supplemented with 0.35% BSA and 5 mM HEPES.
Generating platelet-rich plasma (PRP): Blood is collected from healthy donor volunteers, into plastic sodium citrate tubes. The first two collected tubes are discarded. The remaining blood is processed within 30 mins of blood drawing. The blood is poured into 50 ml conical tubes without exceeding 35 ml per tube and centrifuged at 200×g for 16 minutes at room temperature with acceleration set at half of maximum speed and deceleration off. After centrifugation, the top layer (PRP) is carefully transferred to a new tube by avoiding the buffy coat. The PRP is rested at room temperature for 5-15 minutes. The PRP is then ready to use for experiment as described in protocol below.
(§1) Preparation of Compound: 5.2 mg of Compound 114 is dissolved in […] of 100% DMSO at a concentration of 20 mM. The compound solution is then diluted to 10 mM in 100% DMSO. 10 mM of the compound solution is then diluted to 1 mM and 100 μM in 100% DMSO and then secondarily diluted to 100 μM, 10 μM, and 1 μM in HEPES-Tyrode BSA buffer, making 10× stock solutions.
as §1, with “Preparation of Compound 114 and EX 76637: 5.2 mg” for “Preparation of Compound: 5.2 mg”, “of 20 mM. 2.3 mg of EX 76637 is dissolved in 109 μl of 100% DMSO at a concentration of 50 mM. The” for “of 20 mM. The”, “and […] in 100%” for “and 100 μM in 100%”
Preparation of nintedanib: 2.9 mg of nintedanib is dissolved in 446.3 μl of 100% DMSO at a concentration of 10 mM. The compound solution is then diluted to 100 μM in 100% DMSO. 100 μM of the compound solution is then diluted to […] in HEPES-Tyrode BSA buffer, making 10× stock solutions.
Preparation of EX 00000776 (MMF): 2.3 mg of EX 00000776 is dissolved in 530.5 μl of 100% DMSO at a concentration of 10 mM. The compound solution is then diluted to 5 mM in 100% DMSO. 5 mM of the compound solution is then diluted to 50 µM in HEPES-Tyrode BSA buffer, making 10× stock solutions.
ADP is dissolved in distilled water at concentration of 100 mM. 100 mM ADP are further diluted in HEPES-Tyrode BSA buffer to 10 mM and then secondarily diluted to 100 μM in HEPES-Tyrode BSA buffer, making a 10× stock.
Eighty or forty microliters of PRP is added into a well of a 1 ml deep well plate containing 560 μl or 280 μl of HEPES-Tyrode BSA buffer. Eighty or forty microliters of the 10× compound solution is added per well and incubated at 37° C./5% CO2 for 30 mins prior to addition of ADP. Eighty or forty microliters of 100 μM ADP is added per well and the plate incubated at 37° C./5% CO2 for 5 mins. After 5 minutes of incubation, 300 microliters per well of stimulated PRP is transferred to a sterile 0.22 um PVDF 96-well filter plate. A 96 well microplate is placed under the filter plate to collect supernatant after centrifugation at 1100 rpm for 5 mins. […]

[2] = tested on: bleomycin-induced pulmonary fibrosis; assay: Bleomycin-induced pulmonary fibrosis, therapeutic dosing; type: in vivo, C57Bl/6 mice
Procedure: Compounds and formulation: Compound: Compound 114 (sample ID 30295026), batch 5 and EX00076637 (EX76637/riociguat), sample ID 17810950, batch 5 are both dissolved in Methylcellulose solution. The concentration is 10 mg/kg, 3 mg/kg and 1 mg/kg in a volume of 0.1 ml p.o. Nintedanib ethanesulfonate is prepared freshly every second day. The concentration is 60 mg/kg in a volume of 0.1 ml p.o. Hydroxyproline assay: The amount of collagen protein in skin samples is determined via hydroxyproline assay. After digestion of full skin thickness punch biopsies (Ø 3 mm) derived from the upper back in 6 M HCl for three hours at 120° C., the pH of the samples is adjusted to 6 with 6 M NaOH. For lungs, the middle lobe is analyzed. Afterwards, 0.06 M chloramine T is added to each sample and incubated for 20 min at room temperature. Next, 3.15 M perchloric acid and 20% p-dimethylaminobenzaldehyde are added and samples are incubated for additional 20 min at 60° C. The absorbance is determined at 557 nm with a Spectra MAX 190 microplate spectrophotometer using a standard curve generated with purified type I collagen (Sigma-Aldrich). In the model of bleomycin-induced lung fibrosis, fibrosis is induced by a single intratracheal injection of 50 μl bleomycin at day 0. Mice injected with equal volumes of 0.9% NaCl served as controls. The outcome is analyzed after 28 days. Treatment is started at day 15 post intratracheal installation of bleomycin and thus at a timepoint, when fibrosis is already preestablished. […] Histological evaluation of pulmonary fibrosis: Whole lungs are excised, fixed in 4% formalin for 6 h and embedded in paraffin. […] are cut and stained with Sirius Red. Images are captured using a Hamamatsu nano sumo S60 slide scanner microscope (Hamamatsu, Herrsching am Ammersee, Germany). Histological changes of pulmonary fibrosis are quantified by Ashcroft Scoring. The analysis is performed in a blinded manner. […] Statistics: All data are presented as median ±range, and differences between the groups are tested for their statistical significance by Mann-Whitney U non-parametric test for non-related samples.

[3] = tested on: bleomycin-induced dermal fibrosis; type: in vivo
[4] = tested on: primary human microvascular endothelial cells; assay: Hypoxia assay: hypoxia induced TGFβ2 production (MSD ELISA); type: cell-based
Procedure: The assay uses the following materials and reagents: • Human dermal microvascular endothelial cells are obtained from (Lonza, 2543). • All experiments are performed with cells between passage 4 and passage 8. […]
Culturing endothelial cells: Dermal endothelial cells from each of the indicated donors are grown in T175 flasks with normal culturing media in 37° C./5% CO2 incubator. […] Cells are counted and plated into new T175 for further expansion or plated for the experiment as described in the protocol below. […]
• Day 0: Cells are trypsinized, counted and plated such that each well contains 8×10^3 cells and 100 μl of media and put in an incubator overnight (37° C.) • Day 1: Media is aspirated and replaced with basal media left at 37° C. overnight-24 hours • Day 2: Basal media is replaced with 90 μL of fresh basal media. […]
After treatment plates are left in 37° C. […] Supernatant is collected and TGFβ2 μlevels are measured using MSD ELISA.
Dermal microvascular endothelial cells from three normal donors are plated and grown to confluence. […] Cells and supernatants are collected after 48 hours and TGFβ2 μlevels are measured by MSD-ELISA. MSD plates are read using the MSD QuickPlex SQ 120 Instrument. […]

[5] = treatment initiated two weeks after instillation of bleomycin until end of experiment
[6] = 60 mg/kg qd for the last three weeks, vs bleomycin/vehicle mice

In the case of `CCOc1c(C(=O)O)cnn1-c1cccc(-c2cccc(C)c2OCc2ccc3c(c2C)CCN(C2CCOCC2)C3)n1` [Compound 114], the “ADP-induced CXCL4 production” value ([1]; 0.1 μM, 10 μM ADP) was “reduced ADP-induced CXCL4 production in 9 out of 10 donors”, the “ADP-induced CXCL4 production” value ([1]; 1 μM and 10 μM, 10 μM ADP) was “attenuated the ADP-induced CXCL4 production in all 10 donors” and the “ADP-induced CXCL4 production, percentage of Max of all donors” value ([1]; 10 μM, 1 μM, 0.1 μM, 10 μM ADP, compared to ADP/DMSO) was “significantly reduced ADP-induced CXCL4 production in a dose-dependent manner”. For the same molecule, the “potency/efficacy on ADP-induced CXCL4 production relative to nintedanib, mycophenolate (MMF) and riociguat” value ([1]; FIG. 5) was “more potent/more efficacious”, the “fibrotic readouts of pulmonary fibrosis” value ([2]; doses of 1, 3 or 10 mg/kg) was “significantly improved the fibrotic readouts” and the “dose trend for the Ashcroft score” value ([2]; doses of 1, 3 or 10 mg/kg, differences did not reach statistical significance) was “tendency towards more pronounced effects with higher doses”. The bleomycin-induced dermal fibrosis ([3]; doses of 1, 3 or 5 mg/kg for the last two weeks) was “also ameliorated bleomycin-induced dermal fibrosis”, the “effects on dermal fibrosis compared with nintedanib” value ([3]; doses of 1, 3 or 5 mg/kg vs nintedanib 60 mg/kg qd) was “within the range of those observed with nintedanib” and the “dose-dependency of effect on dermal fibrosis” value ([3]; doses of 1, 3 or 5 mg/kg, trends for dermal thickness and myofibroblast counts) was “no clear dose-dependency was observed”. The “hypoxia-driven TGFβ2 production, statistical significance of reduction” value ([4]; 10 μM Compound 114, hypoxia 1% O2) was “Statistically significant reduction” and the “hypoxia-induced TGFβ2 production” value ([4]; hypoxia 1% O2, 48 hrs, ODQ, supernatant, cells from 3 donors) was “inhibits hypoxia-induced TGFβ2 levels; also recorded: reduced hypoxia-driven TGFβ2 production in a concentration-dependent manner”.
`COC(=O)c1ccc2c(c1)NC(=O)/C2=C(\Nc1ccc(N(C)C(=O)CN2CCN(C)CC2)cc1)c1ccccc1` [nintedanib, Nintedanib ethanesulfonate] was tested, and the “effect on ADP-induced CXCL4 production” value ([1]; standards of care, 10 μM ADP) was “ineffective; also recorded: Minimal to no effect”, the Ashcroft scores [2, 5] was “reduced” and the collagen-covered area [2, 5] was “reduced”. For the same molecule, the “hydroxyproline content (lung)” value [2, 5] was “reduced”, the dermal thickness [3, 6] was “reduced” and the “hydroxyproline content (skin)” value [3, 6] was “lower”. For the same molecule, the myofibroblast counts [3, 6] was “decreased”.
For `COC(=O)N(C)c1c(N)nc(-c2nn(Cc3ccccc3F)c3ncccc23)nc1N` [EX76637, riociguat], the bleomycin-induced pulmonary fibrosis ([2]; 1 mg/kg bid p.o.) was “also ameliorated bleomycin-induced pulmonary fibrosis”, the bleomycin-induced dermal fibrosis ([3]; doses of 1 mg/kg) was “also ameliorated bleomycin-induced dermal fibrosis” and the “effects on dermal fibrosis compared with Compound 114” value ([3]; doses of 1 mg/kg) was “comparable to those of Compound 114”.
With `COC(=O)N(C)c1c(N)nc(-c2nn(Cc3ccccc3F)c3ncccc23)nc1N` [riociguat] the “effect on ADP-induced CXCL4 production” value ([1]; doses equivalent to Compound 114, 10 μM ADP) was “minimal effect; also recorded: Minimal to no effect”.
